{"source": "patent US8445437B2", "about": "“Treatment and prevention of cardiovascular disease using mast cell stabilizers” (The Brigham and Women's Hospital, Inc., priority 2006, dated 2013)", "test_system": "LDLr-/- mice fed an atherogenic (Western) diet", "experiment": "Diet-induced atherosclerosis in LDLr-/- mice with mast cell stabilization or activation", "assay_type": "in vivo, mouse", "conditions": "male LDLr-/- mice, 25 mg/kg/day daily"}
{"smiles": "O=C(O)c1cc(=O)c2c(OCC(O)COc3cccc4oc(C(=O)O)cc(=O)c34)cccc2o1", "note": "[DSCG, disodium cromoglycate]", "values": [{"measurement": "reduction of atherosclerotic lesion development", "setting": "12 weeks", "result": "> 50", "unit": "%"}, {"measurement": "reduction of atherosclerotic lesion development", "setting": "26 weeks", "result": "> 50", "unit": "%"}]}
